Tests used:
FaDu cells [1] = assay: Uptake of boron compounds in FaDu cells in vitro (Example 7); format: cell-based; settings: 2.5 mM in HBSS, two (2) hrs; for uptake (boron) in FaDu cells: 37° C., boron by ICP-OES, FaDu compared with U343MG
Description: (§1) In this experiment, the uptake of BPA, FBH FBF, and LBH was carried out to determine which compounds show greater uptake FaDu and U343MG cells. The following protocols were used. Briefly, two (2) assays were performed, one using FaDu cells and the other using U343MG cells. FaDu and U343MG cells were harvested and washed with PBS twice. The count was adjusted to 2 million/ml in HBSS. Boron compounds were added to cells at the final concentration of 2.5 mM in HBSS and the cells were incubated at 37° C., in a humidified 5% CO2 atmosphere for two (2) hrs. with shaking. Following a two (2) hour incubation, cells were harvested and washed twice with ice cold PBS. Cells were then suspended in 1 ml ice cold PBS and a portion (50 μl) was lysed in RIPA buffer and protein content determined by BCA assay. The remaining portion (950 μl) was subjected to nitric acid lysis (66.7% acid at 80° C.). Boron measurements were carried out using ICP-OES. Boronophenylalanine (as fructose solution) was used as a control.

U343MG cells = assay: Uptake of boron compounds in U343MG cells in vitro (Example 7); format: cell-based; settings: 2.5 mM in HBSS, two (2) hrs; for uptake (boron) in U343MG cells: 37° C., boron by ICP-OES
Description: as §1

FaDu cells [2] = assay: Uptake of boron compounds in FaDu cells in vitro (Example 6); format: cell-based; settings: 2.5 mM in HBSS, 37° C., two (2) hrs, boron by ICP-OES; compared with BPA (fructose solution)
Description: as §1, with “The” for “In this experiment, the uptake of BPA, FBH FBF, and LBH was carried out to determine which compounds show greater uptake FaDu and U343MG cells. The”, “Briefly,” for “Briefly, two (2) assays were performed, one using”, “FaDu” for “FaDu cells and the other using U343MG cells. FaDu and U343MG”

intracranial tumor = settings: BNCT, beam directed to surgically exposed intracranial tumor, Japan 1968; cited from earlier work

Compound	uptake (boron) in FaDu cells (FaDu cells [1])	uptake (boron) in U343MG cells (U343MG cells)	uptake relative to the other compounds, FaDu cells (FaDu cells [1]; versus BPA, FBH, LBH)	uptake relative to the other compounds, U343MG cells (U343MG cells; versus BPA, FBH, LBH)	uptake (boron) in FaDu cells (FaDu cells [2])	5-year survival rate (intracranial tumor) [%]
N[C@@H](Cc1ccc(B(O)O)cc1)C(=O)O [BPA, 4-Borono-L-phenylalanine, reference compound]	slightly lower uptake	sufficient level uptake				
N[C@@H](Cc1ccccc1)[B-](F)(F)F.[K+] [FBF, [(1R)-1-amino-2-phenylethyl]trifluoroboranuide]	slightly lower uptake	sufficient level uptake	marginally greater uptake than the other compounds	marginally greater uptake than the other compounds		
N[C@@H](Cc1ccccc1)B(O)O [FBH, L-phenylalanine boronic acid]	slightly lower uptake	sufficient level uptake				
CC(C)C[C@H](N)B(O)O [LBH, L-leucine boronic acid]	slightly lower uptake	sufficient level uptake			lower	
un-decahydrododecaborane thiol [BSH]						58

From patent US20250059215A1, “Trifluoroborate (BF3) Compositions For Use In Boron Neutron Capture Therapy and Methods Thereof” (TAE Life Sciences LLC, priority 2023, published 2025)
